# Laboratory results reported in US20060229209A1, “Copolymers based on n-vinylamide as adjuvants and agents for using in the agrotechnical field” (priority 2002, published 2006).
# Tested on: Puccinia recondita
# Experiment: Improvement in the fungicidal activity: wheat leaves inoculated with Puccinia recondita, sprayed with fungicide plus test additive, visual assessment of infestation
# Type: in vivo, Puccinia recondita on wheat variety "Kanzler"
# Conditions: no test additive, 8 days in greenhouse after spraying
# Experimental: Both of the leaves which developed first of wheat seeds of the variety “Kanzler”, which were raised in pots, were dusted with spores of Puccinia recondita. In order to guarantee the success of the artificial inoculation, the plants were kept for 24 hours in a humidity chamber without light at a relative humidity of 95 to 99% and a temperature of 20 to 22° C. The next day, the plants were sprayed with an aqueous suspension comprising fungicide at the concentration given below as a mixture with water and 125 ppm of the test additive. The plants were allowed to dry in the air. The experimental plants were subsequently cultivated in a greenhouse for 8 days at a temperature of 22 to 26° C. and a relative humidity of between 40 and 80%. The extent of the fungal infestation on the leaves was assessed visually and expressed as a percentage of the affected leaf area with respect to the unaffected leaf area.
SMILES,% affected leaf area (Epoxiconazole 0.125 ppm a.c.) [%],% affected leaf area (Epoxiconazole 0.25 ppm a.c.) [%],% affected leaf area (Pyraclostrobin 1 ppm a.c.) [%],% affected leaf area (Pyraclostrobin 2 ppm a.c.) [%]
"Fc1ccc([C@]2(Cn3cncn3)O[C@H]2c2ccccc2Cl)cc1 (racemic) [Epoxiconazole, epoxiconazole]",53,47,,
"COC(=O)N(OC)c1ccccc1COc1ccn(-c2ccc(Cl)cc2)n1 [Pyraclostrobin, pyraclostrobin]",,,32,13
